# According to US20090176811A1, “Substituted 5,6,7,8-Tetrahydro-pyrido[4,3-d]pyrimidine-2-yl Compounds and 5,6,7,8-Tetrahydro-quinazoline-2-yl Compounds” (GRUENENTHAL GmbH, priority 2004, published 2009):
# Test system: batrachotoxin (BTX) binding site of the sodium channel
# Experiment: Affinity for the batrachotoxin (BTX) binding site of the sodium channel ([3H]-Batrachotoxinin A20 benzoate, rat cerebrocortex synaptosomes)
# Settings: [3H]-Batrachotoxinin A20 benzoate 10 nM, test concentration not given
row,SMILES,BTX inhibition
1,"Cc1ccc(C(=O)N2CCc3nc(NC(=O)c4ccc(C(C)(C)C)cc4)ncc3C2)cc1[N+](=O)[O-] [Example 92, 4-tert-butyl-N-[6-(4-methyl-3-nitro-benzoyl)-5,6,7,8-tetrahydro-pyrido[4,3-d]pyrimidin-2-yl]-benzamide]",75
2,"O=C(Nc1ncc2c(n1)CCC(NS(=O)(=O)c1cc(Cl)sc1Cl)C2)c1cccs1 (centres unmarked) [Example 180, thiophene-2-carboxylic acid [6-(2,5-dichloro-thiophene-3-sulfonylamino)-5,6,7,8-tetrahydro-quinazolin-2-yl]-amide]",46
3,"COc1cccc(C(=O)Nc2ncc3c(n2)CCN(S(=O)(=O)c2cc(Br)ccc2OC)C3)c1 [Example 129, N-[6-(5-bromo-2-methoxy-benzenesulfonyl)-5,6,7,8-tetrahydro-pyrido[4,3-d]pyrimidin-2-yl]-3-methoxy-benzamide]",76
4,"COc1ccccc1C(=O)Nc1ncc2c(n1)CCN(C(=O)c1cc(-c3ccc(Cl)cc3)oc1C)C2 [Example 78, N-{6-[5-(4-chloro-phenyl)-2-methyl-furan-3-carbonyl]-5,6,7,8-tetrahydro-pyrido[4,3-d]pyrimidin-2-yl}-2-methoxy-benzamide]",31
5,"Cc1ccc(C)c(CC(=O)NC2CCc3nc(NC(=O)c4ccc(F)cc4)ncc3C2)c1 (centres unmarked) [Example 163, N-{6-[2-(2,5-dimethyl-phenyl)-acetylamino]-5,6,7,8-tetrahydro-quinazolin-2-yl}-4-fluoro-benzamide]",28
6,"CCOc1ccccc1C(=O)Nc1ncc2c(n1)CCN(S(=O)(=O)c1ccccc1C(=O)OC)C2 [Example 82, 2-[2-(2-ethoxy-benzoylamino)-7,8-dihydro-5H-pyrido[4,3-d]pyrimidine-6-sulfonyl]-benzoic acid methyl ester]",38
7,"O=C(Nc1ncc2c(n1)CCN(C(=O)c1sc3ccccc3c1Cl)C2)c1ccccc1 [Example 120, N-[6-(3-chloro-benzo[b]thiophene-2-carbonyl)-5,6,7,8-tetrahydro-pyrido[4,3-d]pyrimidin-2-yl]-benzamide]",48
8,"CC(C)(C)c1ccc(C(=O)Nc2ncc3c(n2)CCN(C(=O)c2csc4ccccc24)C3)cc1 [Example 184, N-[6-(benzo[b]thiophene-3-carbonyl)-5,6,7,8-tetrahydro-pyrido[4,3-d]pyrimidin-2-yl]-4-tert-butyl-benzamide]",87
9,"O=C(Nc1ncc2c(n1)CCN(S(=O)(=O)c1cccs1)C2)c1ccc(F)c(F)c1 [Example 72, 3,4-difluoro-N-[6-(thiophene-2-sulfonyl)-5,6,7,8-tetrahydro-pyrido[4,3-d]pyrimidin-2-yl]-benzamide]",31
10,"Cc1cccc(C(=O)Nc2ncc3c(n2)CCN(S(=O)(=O)c2cccc(C)c2)C3)c1 [Example 116, 3-methyl-N-[6-(toluene-3-sulfonyl)-5,6,7,8-tetrahydro-pyrido[4,3-d]pyrimidin-2-yl]-benzamide]",53
11,"O=C(Nc1ncc2c(n1)CCN(C(=O)Cc1ccc(C(F)(F)F)cc1)C2)c1ccccc1 [Example 155, N-{6-[2-(4-trifluoromethyl-phenyl)-acetyl]-5,6,7,8-tetrahydro-pyrido[4,3-d]pyrimidin-2-yl}-benzamide]",62
12,"CCc1ccc(C(=O)Nc2ncc3c(n2)CCN(S(=O)(=O)c2ccccc2Cl)C3)cc1 [Example 114, N-[6-(2-chloro-benzenesulfonyl)-5,6,7,8-tetrahydro-pyrido[4,3-d]pyrimidin-2-yl]-4-ethyl-benzamide]",82
13,"Cc1cc(C(=O)NC2CCc3nc(NC(=O)c4cccs4)ncc3C2)ccc1Br (centres unmarked) [Example 115, thiophene-2-carboxylic acid [6-(4-bromo-3-methyl-benzoylamino)-5,6,7,8-tetrahydro-quinazolin-2-yl]-amide]",82
14,"O=C(Nc1ncc2c(n1)CCN(C(=O)C1CCc3ccccc3C1)C2)c1cccc(F)c1 (centres unmarked) [Example 141, 3-fluoro-N-[6-(1,2,3,4-tetrahydro-naphthalene-2-carbonyl)-5,6,7,8-tetrahydro-pyrido[4,3-d]pyrimidin-2-yl]-benzamide]",63
15,"O=C(Nc1ncc2c(n1)CCN(C(=O)c1ccc(-c3cccs3)cc1)C2)c1cc(Cl)cc(Cl)c1 [Example 144, 3,5-dichloro-N-[6-(4-thiophen-2-yl-benzoyl)-5,6,7,8-tetrahydro-pyrido[4,3-d]pyrimidin-2-yl]-benzamide]",81
16,"O=C(Nc1ncc2c(n1)CCN(C(=O)Cc1ccc(Cl)cc1)C2)c1ccc(Cl)c(Cl)c1 [Example 126, 3,4-dichloro-N-{6-[2-(4-chloro-phenyl)-acetyl]-5,6,7,8-tetrahydro-pyrido[4,3-d]pyrimidin-2-yl}-benzamide]",70
17,"O=C(Nc1ncc2c(n1)CCN(S(=O)(=O)c1cccc(Br)c1)C2)c1cccc(Cl)c1 [Example 125, N-[6-(3-bromo-benzenesulfonyl)-5,6,7,8-tetrahydro-pyrido[4,3-d]pyrimidin-2-yl]-3-chloro-benzamide]",66
18,"Cc1ccc(C(=O)Nc2ncc3c(n2)CCN(C(=O)c2ccc(SC(F)(F)F)cc2)C3)cc1 [Example 148, 4-methyl-N-[6-(4-trifluoromethylsulfanyl-benzoyl)-5,6,7,8-tetrahydro-pyrido[4,3-d]pyrimidin-2-yl]-benzamide]",85
19,"Cc1oc(-c2ccccc2)cc1C(=O)N1CCc2nc(NC(=O)c3ccccc3F)ncc2C1 [Example 137, 2-fluoro-N-[6-(2-methyl-5-phenyl-furan-3-carbonyl)-5,6,7,8-tetrahydro-pyrido[4,3-d]pyrimidin-2-yl]-benzamide]",43
20,"O=C(Nc1ncc2c(n1)CCN(C(=O)c1ccc(Cl)c(Cl)c1)C2)c1ccccc1F [Example 113, N-[6-(3,4-dichloro-benzoyl)-5,6,7,8-tetrahydro-pyrido[4,3-d]pyrimidin-2-yl]-2-fluoro-benzamide]",38
21,"O=C(Nc1ncc2c(n1)CCN(C(=O)CCC1CCCC1)C2)c1ccncc1 [Example 132, N-[6-(3-cyclopentyl-propionyl)-5,6,7,8-tetrahydro-pyrido[4,3-d]pyrimidin-2-yl]-isonicotinamide]",72
22,"COc1ccccc1C(=O)Nc1ncc2c(n1)CCN(C(=O)COCc1ccccc1)C2 [Example 195, N-[6-(2-benzyloxy-acetyl)-5,6,7,8-tetrahydro-pyrido[4,3-d]pyrimidin-2-yl]-2-methoxy-benzamide]",35
23,"CC(C)(C)c1ccc(C(=O)Nc2ncc3c(n2)CCN(S(=O)(=O)c2ccc4c(c2)OCCO4)C3)cc1 [Example 186, 4-tert-butyl-N-[6-(2,3-dihydro-benzo[1,4]dioxin-6-sulfonyl)-5,6,7,8-tetrahydro-pyrido[4,3-d]pyrimidin-2-yl]-benzamide]",77
24,"O=C(Nc1ncc2c(n1)CCN(C(=O)CCCCc1ccccc1)C2)c1ccccc1 [Example 190, N-[6-(5-phenyl-pentanoyl)-5,6,7,8-tetrahydro-pyrido[4,3-d]pyrimidin-2-yl]-benzamide]",56
25,"CCCCCC(=O)NC1CCc2nc(NC(=O)c3ccc(F)cc3)ncc2C1 (centres unmarked) [Example 128, 4-fluoro-N-(6-hexanoylamino-5,6,7,8-tetrahydro-quinazolin-2-yl)-benzamide]",33
26,"O=C(Nc1ncc2c(n1)CCN(C(=O)Cc1c(Cl)cccc1Cl)C2)c1cccc(Cl)c1 [Example 187, 3-chloro-N-{6-[2-(2,6-dichloro-phenyl)-acetyl]-5,6,7,8-tetrahydro-pyrido[4,3-d]pyrimidin-2-yl}-benzamide]",43
